The target of test [1] is Macrophage metalloelastase (Mus musculus, UniProt P34960). Briefly: Inhibitory activity against mouse macrophage metalloelastase (MME) using [3H]elastin as a substrate.
The target in test [2] is Macrophage metalloelastase (Mus musculus) (UniProt P34960). Kind of test: Inhibitory activity against mouse macrophage metalloelastase (MME) at 100 nM concentration using [3H]elastin as a substrate.
For test [3] the target is unchanged. Kind of test: Inhibitory activity against mouse macrophage metalloelastase (MME) using [3H]elastin as a substrate; NI means no inhibition at 100 nM concentration.

Here are results for 45 compounds from ChEMBL document CHEMBL1130786, “Sulfonamide-based hydroxamic acids as potent inhibitors of mouse macrophage metalloelastase” (Bioorg Med Chem Lett, 1998).

As usually defined, the IC50 is the concentration at which inhibition is half-maximal. A low value points to inhibition by little substance. As a reminder, the inhibition is the relative decrease from the control value, in per cent.

Sequence of Macrophage metalloelastase (Mus musculus) (P34960 110-473 limits assumed): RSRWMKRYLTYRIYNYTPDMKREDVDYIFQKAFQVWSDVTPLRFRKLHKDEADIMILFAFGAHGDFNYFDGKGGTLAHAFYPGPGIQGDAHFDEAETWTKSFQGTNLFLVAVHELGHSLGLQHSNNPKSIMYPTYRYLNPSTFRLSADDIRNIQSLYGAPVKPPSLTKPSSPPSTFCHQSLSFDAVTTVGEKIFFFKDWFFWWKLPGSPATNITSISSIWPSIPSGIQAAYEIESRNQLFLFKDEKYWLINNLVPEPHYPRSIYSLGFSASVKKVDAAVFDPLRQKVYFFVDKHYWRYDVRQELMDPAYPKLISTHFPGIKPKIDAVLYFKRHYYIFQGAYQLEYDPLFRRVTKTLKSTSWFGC
Sequence of Macrophage metalloelastase (P34960 whole entry): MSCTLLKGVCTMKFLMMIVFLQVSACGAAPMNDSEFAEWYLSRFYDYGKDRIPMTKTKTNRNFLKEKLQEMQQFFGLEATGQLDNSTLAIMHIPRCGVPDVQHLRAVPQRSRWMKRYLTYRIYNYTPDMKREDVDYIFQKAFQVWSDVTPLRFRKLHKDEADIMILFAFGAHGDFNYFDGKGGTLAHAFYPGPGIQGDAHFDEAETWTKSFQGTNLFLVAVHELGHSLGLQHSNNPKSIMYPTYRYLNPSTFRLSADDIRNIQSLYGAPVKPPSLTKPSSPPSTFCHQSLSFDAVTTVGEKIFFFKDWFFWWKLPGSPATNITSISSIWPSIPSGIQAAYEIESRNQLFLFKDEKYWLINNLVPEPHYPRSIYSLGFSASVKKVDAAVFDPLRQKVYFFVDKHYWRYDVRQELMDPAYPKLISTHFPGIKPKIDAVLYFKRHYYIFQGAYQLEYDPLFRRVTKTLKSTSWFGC

For the compound `COc1ccc(S(=O)(=O)N(Cc2ccccc2)[C@@H](C(=O)NO)C2CCCC2)cc1`, half-maximal inhibition in test [1] (IC50) was put at 15 nM.

For `COc1ccc(S(=O)(=O)N(Cc2ccccc2)C(C(=O)NO)C(C)C)cc1` (stereo not given), it took 16 nM to reach half-maximal inhibition in test [1] (IC50).

Take `COc1ccc(S(=O)(=O)N(Cc2ccccc2)[C@H](CC(C)C)C(=O)NO)cc1`: the half-maximal inhibitory concentration (IC50) in test [1] is 13 nM.

Turning to `COc1ccc(S(=O)(=O)N(Cc2ccccn2)[C@H](CC(C)C)C(=O)NO)cc1`, the IC50 in test [1] came to 6.9 nM.

As for `COc1ccc(S(=O)(=O)N(Cc2ccccc2)[C@@H](C(=O)NO)C2CCNCC2)cc1`, the IC50 in test [1] was > 100 nM.

`COc1ccc(S(=O)(=O)N(Cc2ccccc2)[C@@H](C)C(=O)NO)cc1`: the IC50 in test [1] was determined as 35 nM.

As for `COc1ccc(S(=O)(=O)N(Cc2ccccc2)[C@H](C)C(=O)NO)cc1`, in test [1], the IC50 worked out at 9.6 nM.

Consider `COc1ccc(S(=O)(=O)N(CC(=O)NO)Cc2ccc(C)cc2)cc1`, for which, in test [2], the inhibition was 82%.

Compound `COc1ccc(S(=O)(=O)NCC(=O)NO)cc1` came in with an inhibition in test [2] of 0%.

As to `COc1ccc(S(=O)(=O)N(Cc2ccccn2)[C@H](C(=O)NO)C(C)C)cc1`, the IC50 in test [1] came out at 37 nM.

Consider `COc1ccc(S(=O)(=O)N(Cc2cccnc2)[C@@H](C(=O)NOCc2ccccc2)C(C)C)cc1`, for which, in test [3], the inhibition entry was “No inhibition”.

Compound `COc1ccc(S(=O)(=O)N(CC(=O)NO)Cc2cccnc2)cc1` yielded an inhibition in test [2] of 80%.

Compound `COc1ccc(S(=O)(=O)N(Cc2ccccc2)C(C)C(=O)NO)cc1` (stereo not given) yielded a concentration for half-maximal inhibition (IC50) in test [1] of 13 nM.

Regarding `CC(C)CN(CC(=O)NO)S(=O)(=O)c1ccc(N(C)C)cc1`, the inhibition in test [2] amounted to 34%.

As to `COc1ccc(S(=O)(=O)N(CCc2ccccc2)CC(=O)NO)cc1`, in test [2], the inhibition was 88%.

Consider `COc1ccc(S(=O)(=O)N(CC(=O)NO)Cc2ccncc2)cc1`, for which the inhibition in test [2] is 92%.

Regarding `COc1ccc(S(=O)(=O)N(CC(=O)NO)Cc2ccc(-c3ccccc3)cc2)cc1`, the inhibition in test [2] is 86%.

Compound `COc1ccc(S(=O)(=O)N(CCC(C)C)CC(=O)NO)cc1` came in with an inhibition in test [2] of 11%.

As for `COc1ccc(S(=O)(=O)N(CC(=O)NO)Cc2ccccc2)cc1`, in test [2], the inhibition was 74%.

`COc1ccc(S(=O)(=O)N(CC(=O)NO)Cc2ccccn2)cc1` gave an inhibition in test [2] of 88%.

Compound `COc1ccc(S(=O)(=O)N(CC(=O)NO)CC2CCCCC2)cc1` registered an inhibition in test [2] of 77%.

`COc1ccc(S(=O)(=O)N(Cc2ccccc2)[C@@H](C(=O)NO)C(C)C)cc1` returned an IC50 in test [1] of 4.9 nM.

`CC(C)CN(CC(=O)NO)S(=O)(=O)c1ccccc1` gave an inhibition in test [2] of 27%.

As for `COc1ccc(S(=O)(=O)N(CCCCc2ccccc2)CC(=O)NO)cc1`, the inhibition in test [2] came out at 83%.

`COc1ccc(S(=O)(=O)N(Cc2ccccc2)[C@H](CCCCNC(=O)Oc2ccccc2)C(=O)NO)cc1`: the midpoint of inhibition in test [1], the IC50, lay at 67 nM.

Compound `CC(C)CN(CC(=O)NO)S(=O)(=O)c1ccc(F)cc1` showed an inhibition in test [2] of 22%.

In turn, `COc1ccc(S(=O)(=O)N(Cc2cccnc2)[C@@H](C(=O)NO)C(C)C)cc1` [CGS-27023A] registered an IC50 in test [1] of 7.7 nM.

With `COc1ccc(S(=O)(=O)N(CC(=O)NO)Cc2ccc(Cl)cc2)cc1`, the inhibition in test [2] was 76%.

Turning to `COc1ccc(S(=O)(=O)N(Cc2cccnc2)[C@@H](C(=O)O)C(C)C)cc1`, in test [3], the inhibition result is “No inhibition”.

In test [1], `COc1ccc(S(=O)(=O)N(Cc2ccccc2)[C@@H](C(=O)NO)c2ccccc2)cc1` had a concentration for half-maximal inhibition (IC50) of 31 nM.

In turn, `COc1ccc(S(=O)(=O)N(CC(=O)NO)CC(C)C)cc1` displayed an inhibition in test [2] of 70%.

Compound `COc1ccc(CN(CC(=O)NO)S(=O)(=O)c2ccc(OC)cc2)cc1` had an inhibition in test [2] of 89%.

The compound `CC[C@@H](C)C[C@H](C(=O)NO)N(Cc1ccccc1)S(=O)(=O)c1ccc(OC)cc1` yielded an IC50 in test [1] of 4.8 nM.

In turn, `CC[C@H](C)C[C@H](C(=O)NO)N(Cc1ccccc1)S(=O)(=O)c1ccc(OC)cc1` came in with an IC50 in test [1] of 16 nM.

`COc1ccc(S(=O)(=O)N(CC(=O)NO)Cc2ccc3ccccc3n2)cc1` gave an inhibition in test [2] of 50%.

As for `COc1ccc(S(=O)(=O)N(CC(=O)NO)C(C)C)cc1`, in test [2], the inhibition was determined as 0%.

In turn, `COc1ccc(S(=O)(=O)N(Cc2ccccn2)[C@@H](C(=O)NO)C(C)C)cc1` gave an IC50 in test [1] of 6 nM.

With `COc1ccc(S(=O)(=O)N(CCC2CCCCC2)CC(=O)NO)cc1`, the inhibition in test [2] was found to be 79%.

In test [2], `COc1ccc(S(=O)(=O)N(CC(=O)NO)Cc2cccc(OC)c2)cc1` yielded an inhibition of 75%.

Turning to `CC(C)CN(CC(=O)NO)S(=O)(=O)c1ccc(N)cc1`, the inhibition in test [2] was determined as 22%.

Take `CCC(C)N(CC(=O)NO)S(=O)(=O)c1ccc(OC)cc1` (stereo not given): in test [2], the inhibition is 35%.

As for `CCOCCOc1ccc(S(=O)(=O)N(CC(=O)NO)CC(C)C)cc1`, the inhibition in test [2] was 69%.

In test [2], `Cc1ccc(S(=O)(=O)N(CC(=O)NO)CC(C)C)cc1` gave an inhibition of 56%.

`COc1ccc(S(=O)(=O)N(CC(=O)NO)C2CCCCC2)cc1` came in with an inhibition in test [2] of 13%.

Compound `CC(C)CN(CC(=O)NO)S(=O)(=O)c1ccc(Cl)cc1` returned an inhibition in test [2] of 68%.
